Legend:
Erythrocyte = assay: Minimum hemolytic activity concentration against erythrocyte; format: cell-based; settings: human erythrocyte, 37° C. 1 hour, O.D.540, 50% hemolysis
Procedure: Human blood was collected. The sample blood was then mixed with the equal amount of alsebar solution (glucose: 2.05 g; NaCl: 0.42 g; sodium citrate: 0.8 g; citric acid: 0.55 g; pH: 6.1). The mixture was then stored at a temperature of 4° C. Shortly before used for experiment, the alsebar stored blood was subjected to centrifugal separation. Thus, the supernatant liquid and the leukocyte layer on the erythrocyte were removed. To the erythrocyte was then added PBS in an amount of […] that of the erythrocyte to obtain a 50% erythrocyte. 10 μl of the 50% erythrocyte was then mixed with 990 μl of each of chemicals which had been diluted with PBS in amounts varying stepwise. The erythrocyte was acted upon by the chemical at a temperature of 37° C. for 1 hour. The mixture was then subjected to centrifugal separation. The supernatant liquid was collected for the measurement of the optical density at 540 nm (O.D.540). Separately, the foregoing procedure was followed except that no chemicals were used to prepare a 0% hemolytic control. The foregoing procedure was followed except that Milliq water was used instead of PBS to prepare a 100% hemolytic control. For the minimum hemolytic activity concentration of chemical, the minimum concentration at which the hemolytic concentration is […] was determined.

C. albicans = assay: Anti-septic power test (USP XX); format: cell-based, Candida albicans; settings: test sample 0.002 wt %
Procedure: (§1) Solutions prepared according to the formulation set forth in Tables 10 and 11 below were subjected to anti-septic power test according to the method defined in Pharmacopoeia of the United States XX, 873 (1980). The solutions thus tested were then observed for anti-septic power after 1 hour, 4 hours, 24 hours, 7 days, 14 days, 21 days and 28 days. As test microorganisms, E. coli, P. auru. and S. Aureus were used as bacteria and A. niger and C. albicans were used as fungi. 4BAMP-6C and benzalkonium chloride were used as test samples.

[1] = test system: Staphylococcus aureus IFO 12732; assay: MIC by agar plate dilution method; format: cell-based; settings: S. aureus, 37° C. 24 hours
Procedure: (§2) MIC value was determined by an agar plate dilution method according to the Law of Japanese Society of Chemotherapy. In some detail, a bacteria solution in stationary state which had been adjusted with a nutrient broth such that the concentration of bacterial suspension reached 10^6 cell/ml was added to agar culture media containing chemical solutions having concentrations which vary in two stages where it was then allowed to stand at a temperature of 37° C. for 24 hours for culture. The bacteria solution was then examined to see if the proliferation of bacteria occurred. Thus, MIC was determined.
(§3) The following three kinds of bacteria were used as sample bacteria:
Staphylococcus aureus IFO 12732 (S. aureus)

[2] = test system: Bacillus substilis ATCC 6633; assay: Minimum bactericidal concentration (MBC) against bacteria; format: cell-based, Bacillus subtilis; settings: contact 30° C. 30 minutes, culture 37° C. 24 hours
Procedure: (§4) A bacteria solution in the initial stage of logarithmic productive phase which had been adjusted with a nutrient broth according to an ordinary sterilized water dilution method such that the concentration of bacterial suspension reached 10^6 cell/ml was brought into contact with chemical solutions having concentrations which vary stepwise at a temperature of 30° C. for 30 minutes, and then transplanted to a nutrient broth where it was then allowed to stand at a temperature of 37° C. for 24 hours for culture. The nutrient broth was then examined to see if the proliferation of bacteria occurred. Thus, MBC was determined.
(§5) Five kinds of gram-negative bacteria and four kinds of gram-positive bacteria were used as sample bacteria.
(§6) BAMP-6 (Example 12), BAMD-6,8 (Example 13), BAMT-6 (Example 17) and benzalkonium chloride (Comparative Example 1) were determined for MBC value against 5 kinds of gram-negative bacteria and 4 kinds of gram-positive bacteria in the same manner as in Test Example 1.

[3] = test system: Escherichia coli K12 W 3110; assay: Minimum development inhibiting concentration (MIC) against bacteria, broth dilution method; format: cell-based; settings: 37° C. 24 hours
Procedure: A bacteria solution in stationary state which had been adjusted with a nutrient broth according to an ordinary broth dilution method such that the concentration of bacterial suspension reached 10^6 cell/ml was added to chemical solutions having concentrations which vary stepwise where it was then allowed to stand at a temperature of 37° C. for 24 hours for culture. The bacteria solution was then examined to see if the proliferation of bacteria occurred. Thus, MIC was determined.
Escherichia coli K12 W 3110 was used as a sample bacterium. Compounds obtained in Examples 1 to 9 and benzalkonium chloride prepared in Comparative Example 1 were used as test samples.
The compounds obtained in Examples 10 to 19 and benzalkonium chloride were determined for MIC value against Escherichia coli K12 W 3110 in the same manner as in Test Example 3.

[4] = test system: Pseudomonas aeruginosa ATCC27583; assay: MIC by agar plate dilution method; format: cell-based; settings: P. aeruginosa, 37° C. 24 hours
Procedure: as §2, §3
Pseudomonas aeruginosa ATCC27583 (P. auruginosa); and […]

E. coli = assay: Anti-septic power test (USP XX); format: cell-based, Escherichia coli; settings: test sample 0.002 wt %
Procedure: as §1

S. aureus = assay: Anti-septic power test (USP XX); format: cell-based, Staphylococcus aureus; settings: test sample 0.002 wt %
Procedure: as §1

[5] = test system: Staphylococcus aureus IFO 12732; assay: Minimum bactericidal concentration (MBC) against bacteria; format: cell-based; settings: contact 30° C. 30 minutes, culture 37° C. 24 hours
Procedure: as §4, §5, §6

[6] = test system: Escherichia coli K12 W 3110; assay: as above; format: cell-based; settings: contact 30° C. 30 minutes, culture 37° C. 24 hours
Procedure: as §4, §5, §6

[7] = test system: Bacillus subtilis IFO 3134; assay: as above; format: cell-based; settings: contact 30° C. 30 minutes, culture 37° C. 24 hours
Procedure: as §4, §5, §6

[8] = test system: Pseudomonas aeruginosa ATCC 27583; assay: as above; format: cell-based; settings: contact 30° C. 30 minutes, culture 37° C. 24 hours
Procedure: as §4, §5, §6

[9] = test system: Klebsiella pneumoniae ATCC 13883; assay: as above; format: cell-based; settings: contact 30° C. 30 minutes, culture 37° C. 24 hours
Procedure: as §4, §5, §6

[10] = test system: Candida albicans ATCC10231; assay: Minimum development inhibiting concentration (MIC) against fungi; format: cell-based; settings: C. albicans; spore solution, 27° C. 1 week
Procedure: (§7) A sample fungus which had been pre-cultured was diluted with a wetting agent-containing sterilized water according to an ordinary broth dilution method to prepare a spore solution. 1 ml of the spore solution was then mixed with 1 ml of each of chemical solutions having concentrations which vary stepwise. The mixture was then cultured at a temperature of 27° C. in an incubator for 1 week. The culture was then examined for turbidity to see if the proliferation of fungus occurred. The minimum concentration at which no turbidity occurs was defined to be MIC.
(§8) Aspergillus niger IFO 6431 (A. niger) and Candida albicans ATCC10231 (C. albicans) were used as sample microorganisms.

[11] = test system: Aspergillus niger IFO 6431; assay: as above; format: cell-based; settings: A. niger; spore solution, 27° C. 1 week
Procedure: as §7, §8

A. niger = assay: Anti-septic power test (USP XX); format: cell-based, Aspergillus niger; settings: test sample 0.002 wt %
Procedure: as §1

[12] = Formulation 1 (chondroitin sodium sulfate 1 wt %)

1,4-bis(N,N-dihexyl-N-methylammoniomethyl)phenylene dichloride [Example 4BAMP-6C]
Minimum hemolytic activity concentration Erythrocyte (Erythrocyte): 400 ppm | time at which the desired anti-septic effect was confirmed (C. albicans; [12]): 7 days | time at which the desired anti-septic effect was confirmed (C. albicans; Formulation 2 (taurin 1 wt %)): 7 days | MIC [1]: <2 ppm | MBC [2]: <2 ppm | MIC Escherichia coli K12 W 3110 [3]: 2 ppm | MIC [4]: <2 ppm | time at which the desired anti-septic effect was confirmed (E. coli; [12]): 1 h | time at which the desired anti-septic effect was confirmed (E. coli; Formulation 2 (taurin 1 wt %)): 1 h | time at which the desired anti-septic effect was confirmed (S. aureus; [12]): 1 h | time at which the desired anti-septic effect was confirmed (S. aureus; Formulation 2 (taurin 1 wt %)): 1 h | MBC [5]: <2 ppm | MBC [6]: 16 ppm | MBC [7]: <2 ppm | MBC [8]: 16 ppm | MBC [9]: <2 ppm | MIC [10]: 4 ppm | MIC [11]: 16 ppm | time at which the desired anti-septic effect was confirmed (A. niger; [12]): 7 days | time at which the desired anti-septic effect was confirmed (A. niger; Formulation 2 (taurin 1 wt %)): 14 days

benzalkonium chloride [reference compound]
Minimum hemolytic activity concentration Erythrocyte (Erythrocyte): 25 ppm | time at which the desired anti-septic effect was confirmed (C. albicans; [12]): 21 days | time at which the desired anti-septic effect was confirmed (C. albicans; Formulation 2 (taurin 1 wt %)): 21 days | MIC [1]: 16 ppm | MBC [2]: 4 ppm | MIC Escherichia coli K12 W 3110 [3]: 8 ppm | MIC [4]: 8 ppm | time at which the desired anti-septic effect was confirmed (E. coli; [12]): 24 hrs. hr. | time at which the desired anti-septic effect was confirmed (E. coli; Formulation 2 (taurin 1 wt %)): 24 hrs. hr. | time at which the desired anti-septic effect was confirmed (S. aureus; [12]): 4 hrs. hr. | time at which the desired anti-septic effect was confirmed (S. aureus; Formulation 2 (taurin 1 wt %)): 4 hrs. hr. | MBC [5]: <2 ppm | MBC [6]: 16 ppm | MBC [7]: 4 ppm | MBC [8]: 32 ppm | MBC [9]: 8 ppm | MIC [10]: 16 ppm | MIC [11]: 32 ppm | time at which the desired anti-septic effect was confirmed (A. niger; [12]): 28 days | time at which the desired anti-septic effect was confirmed (A. niger; Formulation 2 (taurin 1 wt %)): 28 days

— patent US6664224B2, “Quaternary ammonium salt and process for the preparation thereof” (priority 2000, dated 2003)
